Measurements as given in PMC10518421, “Zebrafish as model system for the biological characterization of CK1 inhibitors” (Frontiers in Pharmacology, 2023).
Entries after “also recorded” stand apart in the source; their conditions may differ. Where two headings read alike, the source gives them in different places.

How the values were obtained:
[1] = system: CK1δ; design: method as in Bischof et al., 2012; Bibian et al., 2013; conditions: ref Bischof et al., 2012; Bibian et al., 2013; cited from earlier work
[2] = system: csnk1da (CK1δA); experiment: morpholino knockdown in zebrafish embryos, phenotype; format: in vivo, zebrafish (D. rerio); conditions: 400 µM injected, 72 hpf
Description: The TüAB wildtype strain was used for all experiments. […] DMSO served as solvent control. […] Embryos were immobilized in 2.5% methylcellulose.

[3] = system: human PKCα; design: method as in Qiao et al., 2021; conditions: ref Qiao et al., 2021; cited from earlier work
[4] = system: zebrafish PKCα; design: method as in Qiao et al., 2021; conditions: ref Qiao et al., 2021; cited from earlier work
[5] = molecular target: M28FCK1δ (rat) (Rattus norvegicus, UniProt Q06486, M82F); experiment: initial IC50 determination in in vitro kinase assays, prior to standardization; format: biochemical
[6] = system: zebrafish embryos
Description: The TüAB wildtype strain was used for all experiments. […] Zebrafish embryos were dechorionated at 24 h post fertilization (hpf) and treated with the respective concentration of inhibitor, dissolved in DMSO (Sigma-Aldrich, Stadt, Land) and diluted in E3 medium (5 mM NaCl, 0.17 mM KCl, 0.33 mM CaCl2, 0.33 mM MgSO4, 0.6 µM Methylene Blue dissolved in water). DMSO served as solvent control. Embryos were treated from 24 hpf until 72 hpf, the compound solution was renewed daily. Pictures and movies were recorded at 48 and 72 hpf. […] Pictures were taken on an Olympus stereo microscope SZX16 and movies were recorded on an inverse Leica stereo microscope DM IL LED Fluo equipped with a FLEXACAM C1.
Embryos were dechorionated at 24 hpf and treated with 20 µM of the respective inhibitor (Figure 6A).

[7] = molecular target: CK1δ (rat) (Rattus norvegicus, UniProt Q06486); experiment: initial IC50 determination in in vitro kinase assays, prior to standardization; format: biochemical; conditions: not published
Description: (§1) The SMIs used in this study (summarized in Supplementary Table S2) were selected based on their inhibitory capacity toward CK1δ in vitro, whereby a broad range of inhibitors with varying efficiency were included. The determination of IC50-values was conducted prior to the standardization workflow establishment. Zebrafish embryos treated with 20 µM of the respective compound were phenotypically analyzed.
(§2) Supplementary Table 6: List of the inhibitors that were selected for the in vivo screening of zebrafish embryonic development. The compounds were selected based on their ability to inhibit CK1δ in in vitro kinase assays. The initial IC50-values were determined prior to the establishment of the standardized in vitro kinase assay protocol. The Supplementary Table summarizes, whether the zebrafish embryos presented an abnormal phenotype upon inhibitor treatment. The inhibitors were added to the zebrafish medium in a concentration of 20 µM.

[8] = molecular target: CK1ε (Homo sapiens, UniProt P49674); experiment: as above; format: biochemical; conditions: not published, read-out: IC50 values wtCK1ε
Description: as §1, §2

[9] = molecular target: CK1δ (TV1) (Homo sapiens, UniProt P48730); experiment: as above; format: biochemical; conditions: not published
Description: as §1, §2

[10] = molecular target: T1, CK1δ (TV2) (Homo sapiens, UniProt P48730); experiment: as above; format: biochemical; conditions: not published
T1 sequence (P48730 1-409 isoform P48730-2): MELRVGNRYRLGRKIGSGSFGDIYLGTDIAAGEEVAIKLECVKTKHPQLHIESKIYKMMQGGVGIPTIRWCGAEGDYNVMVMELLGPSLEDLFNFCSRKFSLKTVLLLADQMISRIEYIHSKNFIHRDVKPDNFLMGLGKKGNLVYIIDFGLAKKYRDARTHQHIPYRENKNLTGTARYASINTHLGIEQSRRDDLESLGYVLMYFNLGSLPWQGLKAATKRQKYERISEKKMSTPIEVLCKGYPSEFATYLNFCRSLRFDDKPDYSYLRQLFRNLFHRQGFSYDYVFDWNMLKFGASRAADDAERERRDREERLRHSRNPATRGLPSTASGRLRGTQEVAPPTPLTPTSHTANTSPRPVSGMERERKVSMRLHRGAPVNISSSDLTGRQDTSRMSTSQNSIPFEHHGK
Description: as §1, §2

[11] = molecular target: T2, GST-CK1ε (Homo sapiens, UniProt P49674); experiment: in vitro kinase assay, α-casein phosphorylation with [γ-32P]-ATP, standard conditions; format: biochemical; conditions: Michaelis-Menten, ATP 0.5-250 µM
T2 construct: made in house; host or cells: E. coli Rosetta 2 (DE3)
Description: (§3) Each in vitro kinase reaction was performed in a total volume of 15 µL containing 25 mM Tris-HCl (pH 7.0), 10 mM MgCl2, 100 µM EDTA, 2.8 µM of the substrate α-casein and 0.4 pmol [γ-^32P]-ATP at 30°C. […] Reactions were stopped by adding 3 µL of 5x SDS loading buffer and incubating at 95°C for 5 min. Proteins were separated by SDS-PAGE and stained with Coomassie Brilliant Blue R250 (Waldeck GmbH & Co. KG, Muenster, Germany). Autoradiography visualized the incorporation of radioactively labelled γ-phosphate into the proteins. A quantitative analysis of the radioactive signal was performed by excising the proteins from dried gels and measuring phosphate incorporation via Cherenkov counting (Beckmann Scintillation Counter). For the determination of the initial velocity region, a linear regression was performed. Thereby, the number of included data-points was decreased stepwise, and the point of time with the highest maximum coefficient of determination (R ^2) was chosen as the kinase-specific standard reaction time. For determination of the maximal velocity (Vmax) and Michaelis constant (Km) of ATP, various ATP concentrations in a range from 0.5 to 250 µM were tested. Raw data was used for the calculation of enzyme velocity (V) in [pmol/min]. Then, V was plotted over substrate (ATP) concentration and fitted to the Michaelis-Menten model via GraphPad Prism 8 (GraphPad Software, La Jolla, CA, United States). According to the Michaelis-Menten curve, Km, which is the concentration of the substrate, that is needed to obtain half Vmax, was calculated. For determination of IC50 values, the scintillation data measured in cpm was transformed to pmol of transferred phosphate. The data was then transformed logarithmically (X = log(X)), normalized to DMSO (100%) and zero (0%) before fitting to sigmoidal dose-response curves with variable slope with nonlinear regression using GraphPad Prism 7.
(§4) In compliance with the established standard conditions the kinase assays were performed in the presence of 20 µM of the respective inhibitor (Figure 7).

[12] = molecular target: T3, GST-humCK1δ^TV1 (Homo sapiens, UniProt P48730); design: method as in Roth et al., 2021; conditions: previously established, ref Roth et al., 2021; read-out: Km(ATP); cited from earlier work
T3 construct: made in house; host or cells: E. coli Rosetta 2 (DE3)

[13] = system: His-DrCK1ε; experiment: in vitro kinase assay, α-casein phosphorylation with [γ-32P]-ATP, standard conditions; format: biochemical, zebrafish (Danio rerio); conditions: Michaelis-Menten, ATP 0.5-250 µM
Description: as §3, §4

[14] = molecular target: T4, His-DrCK1δA (Danio rerio, UniProt Q7T2E3); experiment: as above; format: biochemical, zebrafish (Danio rerio); conditions: Michaelis-Menten, ATP 0.5-250 µM
T4 construct: made in house; host or cells: E. coli Rosetta 2 (DE3)
T4 sequence (Q7T2E3 1-403): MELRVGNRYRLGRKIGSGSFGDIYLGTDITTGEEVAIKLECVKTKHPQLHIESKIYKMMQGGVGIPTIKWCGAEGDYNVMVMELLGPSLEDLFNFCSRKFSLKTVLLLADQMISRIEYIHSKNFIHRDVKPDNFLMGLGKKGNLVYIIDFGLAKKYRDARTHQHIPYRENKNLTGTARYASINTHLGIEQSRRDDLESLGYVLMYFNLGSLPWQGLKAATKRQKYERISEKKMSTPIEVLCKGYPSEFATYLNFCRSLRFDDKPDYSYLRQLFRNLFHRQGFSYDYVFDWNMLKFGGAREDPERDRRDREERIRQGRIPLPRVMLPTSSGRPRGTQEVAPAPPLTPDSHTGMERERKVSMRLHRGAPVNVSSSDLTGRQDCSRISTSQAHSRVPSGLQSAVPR
Description: as §3, §4
(§5) Next, in vitro kinase assays were performed in absence and presence of the respective SMI at different concentrations (ranging from 13 to 26667 nM). The kinase activity of the inhibitor-treated samples was normalized to the DMSO-control and plotted against the inhibitor concentration (Figure 10).

[15] = molecular target: T5, His-DrCK1δB (Danio rerio, UniProt Q6P3K7); experiment: as above; format: biochemical, zebrafish (Danio rerio); conditions: Michaelis-Menten, ATP 0.5-250 µM
T5 construct: made in house; host or cells: E. coli Rosetta 2 (DE3)
T5 sequence (Q6P3K7 1-409): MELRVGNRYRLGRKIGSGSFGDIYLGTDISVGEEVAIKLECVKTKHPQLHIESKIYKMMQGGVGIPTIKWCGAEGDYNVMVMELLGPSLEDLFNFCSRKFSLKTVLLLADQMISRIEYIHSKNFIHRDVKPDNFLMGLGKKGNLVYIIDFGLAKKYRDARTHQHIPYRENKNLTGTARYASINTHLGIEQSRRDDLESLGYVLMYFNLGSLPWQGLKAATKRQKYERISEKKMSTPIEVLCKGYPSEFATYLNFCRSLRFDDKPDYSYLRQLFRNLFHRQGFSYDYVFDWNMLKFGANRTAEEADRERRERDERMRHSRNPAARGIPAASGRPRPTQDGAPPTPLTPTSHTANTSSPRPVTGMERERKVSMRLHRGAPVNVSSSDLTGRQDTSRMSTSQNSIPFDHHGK
Description: as §3, §4, §5

CK1δ (rat), sequence (Q06486 whole entry): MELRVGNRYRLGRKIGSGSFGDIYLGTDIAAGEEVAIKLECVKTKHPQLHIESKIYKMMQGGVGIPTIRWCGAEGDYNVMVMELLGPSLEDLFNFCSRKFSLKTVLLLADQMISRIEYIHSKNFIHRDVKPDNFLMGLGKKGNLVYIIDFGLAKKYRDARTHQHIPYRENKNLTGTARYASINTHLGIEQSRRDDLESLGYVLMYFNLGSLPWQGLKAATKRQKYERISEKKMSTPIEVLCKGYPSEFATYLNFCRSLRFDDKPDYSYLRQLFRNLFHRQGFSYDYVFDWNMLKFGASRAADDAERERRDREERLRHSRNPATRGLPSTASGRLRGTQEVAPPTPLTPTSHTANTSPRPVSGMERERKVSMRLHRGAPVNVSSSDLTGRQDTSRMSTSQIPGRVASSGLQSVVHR
CK1ε, sequence (P49674 whole entry): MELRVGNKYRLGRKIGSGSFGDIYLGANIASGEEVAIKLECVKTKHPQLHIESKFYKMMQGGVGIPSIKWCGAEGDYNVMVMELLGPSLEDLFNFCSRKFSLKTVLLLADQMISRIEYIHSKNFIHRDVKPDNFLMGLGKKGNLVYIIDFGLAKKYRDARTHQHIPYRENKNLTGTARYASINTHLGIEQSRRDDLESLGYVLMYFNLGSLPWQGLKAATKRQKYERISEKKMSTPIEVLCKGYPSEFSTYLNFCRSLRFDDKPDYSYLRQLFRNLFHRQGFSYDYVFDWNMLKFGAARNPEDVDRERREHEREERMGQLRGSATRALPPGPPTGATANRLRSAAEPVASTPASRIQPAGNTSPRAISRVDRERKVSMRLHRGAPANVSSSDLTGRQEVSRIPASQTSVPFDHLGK
M28FCK1δ (rat), sequence (Q06486 whole entry M82F): as the sequence (Q06486 whole entry) above, with M82F counted along it
CK1δ (TV1), sequence (P48730 whole entry): as the sequence (Q06486 whole entry) above, with V381I counted along it
T3 sequence (P48730 whole entry): as the sequence (Q06486 whole entry) above, with V381I counted along it
T2 sequence (P49674 whole entry): as the sequence (P49674 whole entry) above

**Q.** For Fc1cccc(-n2cnc3c(NCc4nc5c(F)c(F)ccc5[nH]4)nc(N4CCOCC4)nc32)c1 [SR-3029], which “50% inhibitory concentration (IC50) values” [1] is on record?
**A.** double-digit nanomolar range

**Q.** With “csnk1da: morpholino-modified antisense oligonucleotide targeting the translational start site of csnk1da, 5′-TCGGTTTCCTACTCTCAATTCCATG-3′ (all phosphorodiamidate morpholino (PMO))” as the compound, how does the “phenotype of morpholino injected embryos” value [2] read?
**A.** reduced heart function resulting in blood congestion; also recorded: cardiac malfunction

**Q.** For O=S(=O)(NCCNC/C=C/c1ccc(Br)cc1)c1cccc2cnccc12 [H89], which IC50 [3] is on record?
**A.** 31.2 µM

**Q.** What about the IC50 [4] of the same compound?
**A.** 49.8 µM

**Q.** With COc1cc(Cn2c(SCC(=O)Nc3nc4ccc(C(F)(F)F)cc4s3)nc3c(c2=O)SCC3)cc(OC)c1 [G1-4, 2-((3-(3,5-Dimethoxybenzyl)-4-oxo-3,4,6,7-tetrahydrothieno[3,2-d]pyrimidin-2-yl)thio)-N-(6-(trifluormethyl)benzo [d]thiazol-2-yl)acetamid] as the compound, how does the IC50 ([5]; prior to standardization, not published, read-out: IC50 values M28FCK1δ (rat)) read?
**A.** 160 nM

**Q.** What about the Phenotypic changes ([6]; zebrafish, in vivo) of the same compound?
**A.** None observed

**Q.** And the “Phenotypic changes (with severity) after treatment of zebrafish embryos with 20 µM inhibitor” value ([6]; zebrafish, in vivo)?
**A.** No

**Q.** And the IC50 [7]?
**A.** 380 nM

**Q.** And the IC50 [8]?
**A.** 3200 nM

**Q.** With CC(C)n1c(SCC(=O)Nc2nc3ccc(C(F)(F)F)cc3s2)nc2c(c1=O)SCC2 [G1-5, 2-((3-Isopropyl-4-oxo-3,4,6,7-tetrahydrothieno[3,2-d]pyrimidin-2-yl)thio)-N-(6-(trifluormethyl)benzo [d]thiazol-2-yl)acetamid] as the compound, how does the IC50 [5] read?
**A.** 120 nM

**Q.** And the “Phenotypic changes (with severity) after treatment of zebrafish embryos with 20 µM inhibitor” value ([6]; 20 µM in medium, from 24 hpf)?
**A.** Yes (mild)

**Q.** And the “phenotype of treated zebrafish embryos” value ([6]; 20 µM, 24 to 72 hpf (48 h))?
**A.** weak effect on heart development and function with a mild bradycardia and reduced heart rate; also recorded: a curved tail

**Q.** What about the IC50 [9] of the same compound?
**A.** 380 nM

**Q.** And the IC50 [10]?
**A.** 510 nM

**Q.** What about the IC50 [7] of the same compound?
**A.** 160 nM

**Q.** And the IC50 [8]?
**A.** 780 nM

**Q.** For Nc1ncnc2c1ncn2[C@@H]1O[C@H](COP(=O)(O)OP(=O)(O)OP(=O)(O)O)[C@@H](O)[C@H]1O [ATP], which Km [11] is on record?
**A.** 15.4 µM

**Q.** And the Km [12]?
**A.** 6 µM

**Q.** And the Km [13]?
**A.** 14.5 µM

**Q.** What about the Km [14] of the same compound?
**A.** 12 µM

**Q.** And the Km [15]?
**A.** 5.31 µM

**Q.** For O=C(Nc1nc2ccc(C(F)(F)F)cc2[nH]1)c1csc(NC(=O)c2ccccc2OC(F)(F)F)n1 [Bischof-5], which “50% inhibitory concentration (IC50) values” [1] is on record?
**A.** double-digit nanomolar range
